Assay results: ChEMBL document CHEMBL1155012, “Modulation of peripheral serotonin levels by novel tryptophan hydroxylase inhibitors for the potential treatment of functional gastrointestinal disorders” (J Med Chem, 2008)

What follows are molecules tested against Tryptophan 5-hydroxylase 1 (Homo sapiens) (UniProt P17752) (assay: Inhibition of TPH1 in human BON cells assessed as inhibition of serotonin biosynthesis).
Chain of Tryptophan 5-hydroxylase 1 (Homo sapiens) (P17752 whole entry, looked up): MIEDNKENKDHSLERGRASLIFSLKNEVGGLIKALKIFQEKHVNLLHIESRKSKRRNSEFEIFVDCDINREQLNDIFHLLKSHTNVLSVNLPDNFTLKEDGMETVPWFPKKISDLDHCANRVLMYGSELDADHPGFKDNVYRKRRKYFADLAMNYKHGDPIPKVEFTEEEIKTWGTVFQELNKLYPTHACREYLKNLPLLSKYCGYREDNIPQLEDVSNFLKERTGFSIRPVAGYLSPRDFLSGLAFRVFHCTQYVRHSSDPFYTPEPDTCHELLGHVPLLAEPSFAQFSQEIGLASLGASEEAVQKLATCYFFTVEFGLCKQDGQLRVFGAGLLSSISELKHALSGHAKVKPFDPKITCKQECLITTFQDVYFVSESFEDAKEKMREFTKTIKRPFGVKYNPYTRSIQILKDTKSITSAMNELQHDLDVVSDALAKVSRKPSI

Row | Structure (SMILES) | EC50 [nM]
1 | Nc1nc(OC(c2sccc2-c2ccco2)C(F)(F)F)cc(-c2ccc(C[C@H](N)C(=O)O)cc2)n1 (some centres undefined) | 1190
2 | Nc1nc(OC(c2ccccc2-n2ccc(C(F)(F)F)n2)C(F)(F)F)cc(-c2ccc(C[C@H](N)C(=O)O)cc2)n1 (some centres undefined) | 750
3 | Nc1nc(OC(c2ccccc2-c2ccco2)C(F)(F)F)cc(-c2ccc(C[C@H](N)C(=O)O)cc2)n1 (some centres undefined) | 800
4 | Cc1cccc(-c2ccccc2C(Oc2cc(-c3ccc(C[C@H](N)C(=O)O)cc3)nc(N)n2)C(F)(F)F)c1 (some centres undefined) | 560
